{
  "source": "paper PMC12636026",
  "about": "(Journal of the American Chemical Society, 2025)",
  "experiment": "CD thermal unfolding",
  "type": "physicochemical",
  "conditions": "apo, 10 μM, 10 mM HEPES pH 7.0, CD 222 nm",
  "experimental": "2 (A) CD spectra of 0.1 μM and (B) 10 μM KH2-20X and MB1-2 trimers in the absence (apo; KH2-20X, orange; MB1-2, blue) and presence (holo; KH2-20X + TbCl3, red; MB1-2 + TbCl3, turquoise) of 1.0 equiv of TbCl3, recorded at 293 K. (C) CD thermal unfolding profiles of 10 μM trimers monitoring the molar ellipticity at 222 nm: apo MB1-2 (blue), Tb(MB1-2)3 (turquoise), apo KH2-20X (orange), and Tb(KH2-20X) (red). Solid lines indicate forward heating, and dotted lines indicate reverse cooling. All experiments were conducted in HEPES buffer at pH 7.0, with buffer concentrations adjusted to match peptide concentration (0.1 and 10.0 mM for 0.1 and 10.0 μM peptide, respectively). […]\n10 µM peptide in 10 mM HEPES, 0.1 mM TbCl₃ into 1 µM peptide in 1 mM HEPES, and 0.01 mM TbCl₃ into 0.1 µM peptide in 0.1 mM HEPES (all at pH 7.0). […] The observed ellipticity was then converted into molar ellipticity, where the helical content was calculated as the percentage folded, based on the theoretical maximum ellipticity at 222 nm as reported by Scholtz et al.9 Thermal unfolding data was recorded by monitoring the ellipticity at 222 nm of a 10 μM trimer concentration of MB1-2 and KH2-20X solution in 10 mM HEPES buffer (pH 7.0) in the absence and presence of 10 μM TbCl3, using a Jasco Peltier Type MPTC-513 temperature controller ramping from 20 °C to 85 °C in 0.1°C increments, heating at 1 °C/min. […]",
  "note": "Bridges are numbered along the chain shown (N, C = ends). Roman numbers before positions name the chains, in order.",
  "data": [
    {"substance": "I: Ac-GIAAIEQKIAANEWKDAAIEQKIAAIEQKIAAIEQKG-NH2 / II: Ac-GIAAIEQKIAANEWKDAAIEQKIAAIEQKIAAIEQKG-NH2 / III: Ac-GIAAIEQKIAANEWKDAAIEQKIAAIEQKIAAIEQKG-NH2 (amide I:15-II:20, I:20-III:15, II:15-III:20) [KH2-20X]", "values": [
      {"measurement": "folding over the temperature range 20-85 °C", "value": "remain well-folded throughout the entire temperature range"}
    ]}
  ]
}
